The target in this experiment is T1, human APJ receptor (Homo sapiens, UniProt P35414).
T1 construct: expressed in transfected cells; host or cells: HEK293
T1 sequence (P35414 1-380): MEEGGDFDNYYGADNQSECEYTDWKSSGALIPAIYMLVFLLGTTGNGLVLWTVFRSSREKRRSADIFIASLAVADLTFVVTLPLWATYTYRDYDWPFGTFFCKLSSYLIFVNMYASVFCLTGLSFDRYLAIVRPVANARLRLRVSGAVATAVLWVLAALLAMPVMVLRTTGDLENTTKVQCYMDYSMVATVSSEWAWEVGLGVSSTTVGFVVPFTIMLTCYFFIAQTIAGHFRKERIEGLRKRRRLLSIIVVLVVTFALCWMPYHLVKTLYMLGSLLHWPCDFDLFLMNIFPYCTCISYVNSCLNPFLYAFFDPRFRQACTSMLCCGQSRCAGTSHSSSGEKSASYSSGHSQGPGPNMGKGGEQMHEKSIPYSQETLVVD
Kind of experiment: Intracellular cAMP Accumulation Assay (APJ hcAMP, HTRF). The experiment is classed as cell-based. As for the experimental part:
Intracellular cAMP Accumulation Assay
HEK293 cells stably expressing human APJ receptor were used to assess the activity of compounds. Cultured cells were detached and resuspended in the cAMP
Homogeneous Time-Resolved Fluorescence (HTRF) assay buffer (Cisbio cat; #62AM4PEJ). The assay was performed in 384-well assay plates (Perkin-Elmer; cat #6008289) according to assay protocol provided by the manufacturer. Serial dilutions of a compound together with assay buffer containing […] IBMX and 2 μM forskolin were added to each well containing 5,000 cells and incubated for 30 minutes at room temperature. Subsequently, cAMP D2 reagent was added in the lysis buffer followed by the EuK antibody (Cisbio; cat #62AM4PEJ) and incubated for 60 min. The fluorescence emission ratio was measured using fluorometer. The intracellular cAMP concentrations (compound-stimulated inhibition of forskolin-mediated cAMP production) were calculated by extrapolation from a standard curve using known cAMP concentrations. The EC50 values were obtained by fitting the data to a sigmoidal concentration-response curve with variable slope.
The EC50 value of each compound is presented at the end of the example description.
The biological activity of the exemplified compounds of this invention determined by the assay described above is shown at the end of each example.
In general terms: Time-resolved FRET reads energy transfer from a long-lived donor to a nearby acceptor.

The mark [1] stands for this setting: human APJ, intracellular cAMP accumulation, read-out: hAPJ cAMP EC50 Potency range.
Where [2] appears, read: read-out: hAPJ cAMP EC50 Potency range, human APJ, intracellular cAMP accumulation.

Read-outs that look alike come from different tables or passages of the source.

What is called EC50 is the concentration giving half of the maximal effect. Regarding `CCOCc1nc(=O)c(C(=O)N2CCC(c3ccccn3)C2)c(O)n1-c1c(OC)cccc1OC` (single isomer, unassigned) [Example 55, 1-(2,6-dimethoxyphenyl)-2-(ethoxymethyl)-6-hydroxy-5-[3-(pyridin-2-yl)pyrrolidine-1-carbonyl]-1,4-dihydropyrimidin-4-one], the EC50 under setting [1] lay within 0.01 to 10 nM.
On the same count and under the same terms, for `CCOCc1nc(=O)c(C(=O)N2CCC(c3ccc(F)cc3)C2)c(O)n1-c1c(OC)cccc1OC` (single isomer, unassigned) [Example 57, 1-(2,6-dimethoxyphenyl)-2-(ethoxymethyl)-5-[3-(4-fluorophenyl)pyrrolidine-1-carbonyl]-6-hydroxy-1,4-dihydropyrimidin-4-one] the value was 0.01 to 10 nM.
On to `CCCCc1nc(=O)c(C(=O)N2CCC(c3ccccn3)C2)c(O)n1-c1c(OC)cccc1OC` (single isomer, unassigned) [Example 68, 2-butyl-1-(2,6-dimethoxyphenyl)-6-hydroxy-5-[3-(pyridin-2-yl)pyrrolidine-1-carbonyl]-1,4-dihydropyrimidin-4-one], for which the EC50 was 0.01 to 10 nM.
For `CCCCc1nc(=O)c(C(=O)N2CCC(c3ccccn3)C2)c(O)n1-c1c(OC)cccc1OC` (single isomer, unassigned) [Example 70, 2-butyl-1-(2,6-dimethoxyphenyl)-6-hydroxy-5-[3-(pyridin-2-yl)pyrrolidine-1-carbonyl]-1,4-dihydropyrimidin-4-one], under setting [2], the EC50 is 0.01 to 10 nM.
For the molecule `CCCCc1nc(=O)c(C(=O)N2CCC(c3cccnc3)C2)c(O)n1-c1c(OC)cccc1OC` (single isomer, unassigned) [Example 75, 2-butyl-1-(2,6-dimethoxyphenyl)-6-hydroxy-5-[3-(pyridin-3-yl)pyrrolidine-1-carbonyl]-1,4-dihydropyrimidin-4-one], the EC50 lay in the range of 0.01 to 10 nM.
For `CCCCc1nc(=O)c(C(=O)N2CCC(c3cccnc3)C2)c(O)n1-c1c(OC)cccc1OC` (single isomer, unassigned) [Example 76, 2-butyl-1-(2,6-dimethoxyphenyl)-6-hydroxy-5-[3-(pyridin-3-yl)pyrrolidine-1-carbonyl]-1,4-dihydropyrimidin-4-one], under setting [2], the EC50 was 0.01 to 10 nM.
`CCCCc1nc(=O)c(C(=O)N2CCC(c3ccc(F)cc3)C2)c(O)n1-c1c(OC)cccc1OC` (single isomer, unassigned) [Example 77, 2-butyl-1-(2,6-dimethoxyphenyl)-5-[3-(4-fluorophenyl)pyrrolidine-1-carbonyl]-6-hydroxy-1,4-dihydropyrimidin-4-one]: under setting [1], the EC50 is 0.01 to 10 nM.
The same measure, in the same setting: for `CCCCc1nc(=O)c(C(=O)N2CCC(c3cccc(F)c3)C2)c(O)n1-c1c(OC)cccc1OC` (single isomer, unassigned) [Example 78, 2-butyl-1-(2,6-dimethoxyphenyl)-5-[3-(3-fluorophenyl)pyrrolidine-1-carbonyl]-6-hydroxy-1,4-dihydropyrimidin-4-one] the value was 0.01 to 10 nM; for `CCCCc1nc(=O)c(C(=O)N2CCC(c3ccc(F)cc3)C2)c(O)n1-c1c(OC)cccc1OC` (single isomer, unassigned) [Example 79, 2-butyl-1-(2,6-dimethoxyphenyl)-5-[3-(4-fluorophenyl)pyrrolidine-1-carbonyl]-6-hydroxy-1,4-dihydropyrimidin-4-one], 0.01 to 10 nM; for `CCCCc1nc(=O)c(C(=O)N2CCC(c3cccc(F)c3)C2)c(O)n1-c1c(OC)cccc1OC` (single isomer, unassigned) [Example 80, 2-butyl-1-(2,6-dimethoxyphenyl)-5-[3-(3-fluorophenyl)pyrrolidine-1-carbonyl]-6-hydroxy-1,4-dihydropyrimidin-4-one], 0.01 to 10 nM.
On the same count and under the same terms, for `CCOCc1nc(=O)c(C(=O)N2CCC(c3ccc(F)cc3)C2)c(O)n1-c1c(OC)cccc1OC` (single isomer, unassigned) [Example 81, 1-(2,6-dimethoxyphenyl)-2-(ethoxymethyl)-5-[3-(4-fluorophenyl)pyrrolidine-1-carbonyl]-6-hydroxy-1,4-dihydropyrimidin-4-one] the value was 0.01 to 10 nM; for `CCOCc1nc(=O)c(C(=O)N2CCC(c3cccnc3)C2)c(O)n1-c1c(OC)cccc1OC` (single isomer, unassigned) [Example 82, 1-(2,6-dimethoxyphenyl)-2-(ethoxymethyl)-6-hydroxy-5-[3-(pyridin-3-yl)pyrrolidine-1-carbonyl]-1,4-dihydropyrimidin-4-one], 0.01 to 10 nM.
As for `CCOCc1nc(=O)c(C(=O)N2CCC(c3cccc(F)c3)C2)c(O)n1-c1c(OC)cccc1OC` (single isomer, unassigned) [Example 83, 1-(2,6-dimethoxyphenyl)-2-(ethoxymethyl)-5-[3-(3-fluorophenyl)pyrrolidine-1-carbonyl]-6-hydroxy-1,4-dihydropyrimidin-4-one], the EC50 under setting [1] lay in the range of 0.01 to 10 nM.
The same measure, in the same setting: for `CCOCc1nc(=O)c(C(=O)N2CCC(c3cccc(F)c3)C2)c(O)n1-c1c(OC)cccc1OC` (single isomer, unassigned) [Example 84, 1-(2,6-dimethoxyphenyl)-2-(ethoxymethyl)-5-[3-(3-fluorophenyl)pyrrolidine-1-carbonyl]-6-hydroxy-1,4-dihydropyrimidin-4-one] the value was 0.01 to 10 nM; for `CCOCc1nc(=O)c(C(=O)N2CCC(c3cccnc3)C2)c(O)n1-c1c(OC)cccc1OC` (single isomer, unassigned) [Example 85, 1-(2,6-dimethoxyphenyl)-2-(ethoxymethyl)-6-hydroxy-5-[3-(pyridin-3-yl)pyrrolidine-1-carbonyl]-1,4-dihydropyrimidin-4-one], 0.01 to 10 nM.
Still for that read-out and setting: next, `COc1cccc(OC)c1-n1c(COC(C)C)nc(=O)c(C(=O)N2CCC(c3ccccc3Cl)C2)c1O` (single isomer, unassigned) [Example 92, 5-[3-(2-chlorophenyl)pyrrolidine-1-carbonyl]-1-(2,6-dimethoxyphenyl)-6-hydroxy-2-[(propan-2-yloxy)methyl]-1,4-dihydropyrimidin-4-one]: 0.01 to 10 nM.
The same measure, in the same setting: next, `COc1cccc(OC)c1-n1c(COC(C)C)nc(=O)c(C(=O)N2CCC(c3ccccc3F)C2)c1O` (single isomer, unassigned) [Example 93, 1-(2,6-dimethoxyphenyl)-5-[3-(2-fluorophenyl)pyrrolidine-1-carbonyl]-6-hydroxy-2-[(propan-2-yloxy)methyl]-1,4-dihydropyrimidin-4-one]: 0.01 to 10 nM; `COc1cccc(OC)c1-n1c(COC(C)C)nc(=O)c(C(=O)N2CCC(c3ccc(F)cc3)C2)c1O` (single isomer, unassigned) [Example 94, 1-(2,6-dimethoxyphenyl)-5-[3-(4-fluorophenyl)pyrrolidine-1-carbonyl]-6-hydroxy-2-[(propan-2-yloxy)methyl]-1,4-dihydropyrimidin-4-one]: 0.01 to 10 nM; `COc1cccc(OC)c1-n1c(COC(C)C)nc(=O)c(C(=O)N2CCC(c3cccc(F)c3)C2)c1O` (single isomer, unassigned) [Example 95, 1-(2,6-dimethoxyphenyl)-5-[3-(3-fluorophenyl)pyrrolidine-1-carbonyl]-6-hydroxy-2-[(propan-2-yloxy)methyl]-1,4-dihydropyrimidin-4-one]: 0.01 to 10 nM.
For the molecule `COc1cccc(OC)c1-n1c(COC(C)C)nc(=O)c(C(=O)N2CCC(c3cccc(F)c3)C2)c1O` (single isomer, unassigned) [Example 97, 1-(2,6-dimethoxyphenyl)-5-[3-(3-fluorophenyl)pyrrolidine-1-carbonyl]-6-hydroxy-2-[(propan-2-yloxy)methyl]-1,4-dihydropyrimidin-4-one], under setting [1], the EC50 was 0.01 to 10 nM.
Consider `COc1cccc(OC)c1-n1c(COC(C)C)nc(=O)c(C(=O)N2CCC(c3ccccc3C)C2)c1O` (single isomer, unassigned) [Example 98, 1-(2,6-dimethoxyphenyl)-6-hydroxy-5-[3-(2-methylphenyl)pyrrolidine-1-carbonyl]-2-[(propan-2-yloxy)methyl]-1,4-dihydropyrimidin-4-one], for which the EC50 under setting [1] is 0.01 to 10 nM.
The same measure, in the same setting: for `COc1cccc(OC)c1-n1c(COC(C)C)nc(=O)c(C(=O)N2CCC(c3ccccc3C(F)(F)F)C2)c1O` (single isomer, unassigned) [Example 99, 1-(2,6-dimethoxyphenyl)-6-hydroxy-2-[(propan-2-yloxy)methyl]-5-{3-[2-(trifluoromethyl)phenyl]pyrrolidine-l-carbonyl}-1,4-dihydropyrimidin-4-one] the value was 0.01 to 10 nM; for `COc1cccc(OC)c1-n1c(COC2CC2)nc(=O)c(C(=O)N2CCC(c3ccc(F)cc3)C2)c1O` (single isomer, unassigned) [Example 100, 2-(cyclopropoxymethyl)-1-(2,6-dimethoxyphenyl)-5-[3-(4-fluorophenyl)pyrrolidine-1-carbonyl]-6-hydroxy-1,4-dihydropyrimidin-4-one], 0.01 to 10 nM.

Values taken from US10590113B2, “6-hydroxy-4-oxo-1,4-dihydropyrimidine-5-carboxamides as APJ agonists” (priority 2016, dated 2020).
